Measured values taken from paper PMC12903969, “Discovery of a Novel and Potent Kir4.1 Inhibitor as a Safe and Rapid‐Onset Antidepressant Agent in Mice” (Advanced Science, 2025).
Values joined by “and” are separate entries in the source; they are usually repeats but may differ in a detail not shown here. Identical values can stand only once. Like-named read-outs stand apart in the source and are kept apart here.

Tests used:
[1] = system: MDA-MB-468 breast cancer cells; test: Cytotoxicity test (CCK-8); type: cell-based; conditions: Homo sapiens, MDA-MB-468, 48 h, CCK-8, 48 h; read-out: IC50 against MDA-MB-468 breast cancer cells
Summary of the method: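 Cells seeded at 12,000/well in L15 for 24 h, then exposed 48 h to compounds at 0.41-100.00 µM (DMSO <0.4%). Viability by 10% CCK-8, 2 h at 37 °C, absorbance 450 nm, expressed as percent of control.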

C57BL/6J mice after CSDS = test: CSDS model, social interaction test; type: in vivo
Description: The 10‐day CSDS paradigm was conducted as previously described.^[ [24] ^] CD‐1 aggressive mice were singly housed in defeat cages on one side of a perforated plexiglass partition 24 h before the defeat session. Experimental C57BL/6J mice were placed daily on the resident cage side of a novel CD‐1 aggressor that rapidly initiated a physical attack on the intruder. After 10‐min of social defeat, the intruder mice were housed on the opposite side of the partition within a shared home cage, experiencing further sensory contact for the subsequent 24 h. In contrast, control mice were maintained in their home cages and allowed to explore the empty defeat cages for 10 min each day.
C57BL/6J mice, comprising both control and experimental groups, were placed individually into the social open field with a plexiglass enclosure positioned along the side wall. Movement parameters, including the time spent in the interaction zone, corner zones, and locomotion, were monitored and analyzed over the two test sessions using the AnyMaze Tracking System. In the first session, the mice freely explored the arena for 2.5 min. Then, a new aggressive CD‐1 mouse was introduced into the plexiglass enclosure, and the experimental mice returned to the arena for the second 2.5‐min session. The social interaction ratio was determined as the ratio between the time the experimental mice spent in the interaction zone when the target CD‐1 was present and the time spent in the zone when it was absent.

Kir4.1 = biological target: T1, Kir4.1 (Homo sapiens, UniProt P78508); test: Whole-cell patch clamp, Kir4.1 currents in transfected CHO-K1 cells; type: cell-based; conditions: for inhibition at 1 µM: CHO-K1, 1 μM; for inhibition at 10 µM: CHO-K1, 10 μM; for IC50: whole-cell patch clamp
T1 construct: host or cells: CHO-K1
T1 sequence (P78508 1-379): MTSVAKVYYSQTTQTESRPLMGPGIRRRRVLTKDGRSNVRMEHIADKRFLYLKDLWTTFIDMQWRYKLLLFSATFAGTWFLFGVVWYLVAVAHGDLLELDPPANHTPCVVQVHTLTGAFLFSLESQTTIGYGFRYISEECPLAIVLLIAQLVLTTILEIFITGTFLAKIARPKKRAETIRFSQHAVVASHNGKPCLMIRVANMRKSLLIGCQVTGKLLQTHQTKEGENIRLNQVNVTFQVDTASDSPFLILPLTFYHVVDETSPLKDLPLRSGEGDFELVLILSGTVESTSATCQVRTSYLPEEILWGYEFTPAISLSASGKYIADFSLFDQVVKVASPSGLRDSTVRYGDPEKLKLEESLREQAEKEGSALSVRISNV
Summary of the method: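 Transiently transfected CHO-K1 cells (with EGFP), whole-cell voltage clamp at room temperature; pipette 140 mM KCl pH 7.2, bath 140 mM NaCl/5 mM KCl pH 7.4. Currents evoked from −80 mV holding by a step to −120 mV then ramp to +50 mV; compounds applied by perfusion.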

What does the source list for `c1ccc2c(c1)oc1ccc(Nc3ccnc(NCCCN4CCOCC4)n3)cc12` [JX3212, N^4-(dibenzo[b,d]furan-2-yl)-N^2-(3-morpholinopropyl)pyrimidine-2,4-diamine]?
IC50 [1]: 13700 ± 610 nM; SIT--Time in interaction zone (s), single mice (C57BL/6J mice after CSDS; 10 mg/kg, session not given): 83.5 s and 59.3 s and 49.8 s and 72.2 s and 60.4 s and 74.9 s and 82.2 s and 43.8 s; CSDS: time spent in corners in SIT (in words) (C57BL/6J mice after CSDS; single i.p. injection 10 mg kg−1): significant decrease in the time spent in corners; inhibition at 0.5 µM (Kir4.1; CHO-K1, 0.5 μM, +50 mV, read-out: Kir4.1 Inhibition ± SD (%) at 0.5 μM, +50 mV): 82.8 ± 1.51%; inhibition at 0.5 µM (Kir4.1; CHO-K1, 0.5 μM, -120 mV, read-out: Kir4.1 Inhibition ± SD (%) at 0.5 μM, -120 mV): 73.2 ± 3.59%; inhibition at 0.5 µM (Kir4.1; CHO-K1, 0.5 µM, read-out: Kir4.1 inhibition at 0.5 µM): > 60%; inhibition at 1 µM (Kir4.1; +50 mV, read-out: Kir4.1 Inhibition ± SD (%) at 1 μM, +50 mV): 82.5 ± 5.51%; inhibition at 1 µM (Kir4.1; -120 mV, read-out: Kir4.1 Inhibition ± SD (%) at 1 μM, -120 mV): 84.5 ± 3.09%; inhibition at 3 µM (Kir4.1; CHO-K1, 3 µM, mean ± SEM, read-out: current inhibition, Kir4.1 WT): 92.4 ± 2.25%; inhibition at 10 µM (Kir4.1; +50 mV, read-out: Kir4.1 Inhibition ± SD (%) at 10 μM, +50 mV): 96 ± 1.52%; inhibition at 10 µM (Kir4.1; -120 mV, read-out: Kir4.1 Inhibition ± SD (%) at 10 μM, -120 mV): 97.3 ± 1.01%; inhibition at 3 µM (Kir4.1; CHO-K1, JX3212 3 µM (Fig 2A), read-out: Kir isoforms: Kir4.1 inhibition, single recordings): 94.9%; inhibition at 3 µM (Kir4.1; CHO-K1, JX3212 3 µM (Fig 2D), read-out: Mutation: Kir4.1 WT inhibition, single recordings): 92.1%; Kir isoforms: Kir4.1 inhibition, single recordings (Kir4.1; JX3212 3 µM (Fig 2A)): 94.131 and 95.7029; Mutation: Kir4.1 WT inhibition, single recordings (Kir4.1; JX3212 3 µM (Fig 2D)): 94.7739 and 90.2954; improvement in target activity over lead EHop-016 (Kir4.1; Kir4.1 IC50 ratio): 2.6 fold; IC50 (Kir4.1; CHO cells transiently expressing Kir4.1, +50 mV, read-out: IC50 for Kir4.1 inhibition (+50 mV, outward currents)): 190 nM; IC50 (Kir4.1; CHO cells transiently expressing Kir4.1, −120 mV, read-out: IC50 for Kir4.1 inhibition (−120 mV, inward currents)): 280 nM
